Earlier results as cited in patent US20150202168A1, “ORAL FILM FORMULATIONS COMPRISING DAPOXETINE AND TADALAFIL” (Sanovel Ilac Sanayi Ve Ticaret Anonim Sirketi, priority 2012, published 2015).

Experiments:
[1] = following oral administration
[2] = Int J Impot Res. 2006; 18(1):104-10
human body = details: studies conducted

CN(C)[C@@H](CCOc1cccc2ccccc12)c1ccccc1 [dapoxetine]
binding to the plasma proteins [1]: almost completely
interactions with PDE5 inhibitors [2]: does not have pharmaceutical interactions

Mogroside
toxicity to human body (human body): not toxic

CN1CC(=O)N2[C@H](c3ccc4c(c3)OCO4)c3[nH]c4ccccc4c3C[C@@H]2C1=O [Tadalafil, (6R-trans)-6-(1,3-benzodioxol-5-yl)-2,3,6,7,12,12a-hexahydro-2-methyl-pyrazino[1′,2′:1,6]pyrido[3,4-b]indole-1,4-dione]
solubility in water: poorly soluble
